The record followed here is patent US20230165865A1, “HETEROARYLDIHYDROPYRIMIDINE DERIVATIVES AND METHODS OF TREATING HEPATITIS B INFECTIONS” (Janssen Pharmaceutica NV, priority 2018, published 2023).

Read-outs that look alike come from different tables or passages of the source.

One data set deals with CYP3A4. The data set can be described thus: In vitro assessment of CYP3A4 induction in cryopreserved human hepatocytes (mRNA level). In kind it is in vitro ADME. How it is done: Preparation and Plating of Human Hepatocytes • 1. The cryopreserved human hepatocytes were thawed in 37° C. water bath and diluted by plating medium to a seeding density of 0.55×10^6 cells/mL. • 2. Transfer 100 μL to each well of collagen I coated 96-well plate. Place plate(s) in incubator and incubate at 37° C. for 4-6 hours. • 3. After incubation, observe cell morphology, agitate plate(s) to loosen debris, and replace medium. Place plate in incubator and incubate for 18 hours. Incubation with Test Compound(s) • 1. Prepare dilute test compound and positive control inducers with 37° C. prepared incubation medium to respective working concentrations (Table 11). Final concentration of DMSO in the treatment group will be 0.1%. Prepare 25 mM chlorpromazine in DMSO and dilute 1000-fold with incubation medium as a cytotoxicity control. • 2. Remove the Hepatocyte plate from the incubator. Observe cell morphology. Replace the medium in the appropriate wells with 125 μL of the toxicity controls, DMSO controls, inducers, or test article solutions, each in triplicate. • 3. After 24 hours and 48 hours, remove the Hepatocyte plate from the incubator and observe cell morphology. Renew the medium with test articles that freshly diluted from DMSO stocks. Return plate to the incubator. 4. mRNA Preparation and RT-PCR • 1. mRNA was prepared and measured using the Cells-to-Ct kit. Add DNase to Lysis solution. • 2. 15 μL of sample lysate was added to 35 µL of Reverse Transcription Master Mix (containing 2×RT Buffer, 20×RT Enzyme Mix and Nuclease-free Water) for a final 50 μL reaction volume. • 3. Separate PCR cocktails were prepared for CYP3A4; containing the CYP specific probe set and that of ACTB as the endogenous control gene. […] Reactions were analyzed on an Applied Biosystems Real Time PCR system (AB 7500). […] For mRNA level determination, the mRNA content in each well is expressed as 2^Ct(ACTB)-Ct(CYP). Fold of induction=mRNA(induced)/mRNA(vehicle) 3) The percent adjusted positive control is determined by: % of positive control=[(fold induction of test article)/(fold induction of positive control)]*100

Data set [1] in a line: Cytotoxicity determination in HepG2.2.15 cells (CCK-8 assay). The note with it: human, 6 days treatment, CCK-8, highest concentration 100 uM. Type of data set: cell-based. The method, boiled down: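 HepG2.2.15 cells (5,000/well, 2% FBS medium) were treated for 6 days, with medium and compound refreshed at day 3. Dosing was an 8-point 1:3 series from 100 uM, in triplicate. Viability was measured by CCK-8 after 2.5 h at 37 °C (A450, 630 nm reference), and CC50 was calculated.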

Data set [2] in a line: Pharmacokinetic and tissue distribution study via intravenous and oral administration in male C57BL/6 mice. In kind it is in vivo. The note with it: for Kp / clearance / Cmax: male, C57BL/6, mouse; for Kp: liver and plasma, po; for Kp / Cmax / Liver AUCinf/Dose / Liver Cmax/Dose / PO AUCinf/Dose: PO; for clearance / IV AUCinf/Dose: IV, nominal 2 mg/kg; for clearance: read-out: IV Cl; for Cmax: dose per compound in table (5.28-9.95 mg/kg); for F: PO vs IV. How it is done: Male C57BL/6 mice with a weight range of 20-25 g (Hua Fu Kang, China) were used. Animals were fasted overnight and free access to food 4 hours after dosing.
Test compound (correction factor: 1.00) was dissolved in a 20% hydroxypropyl-β-cyclodextrin (HP-β-CD) at a final concentration of 1 mg/ml for the intravenous (IV) formulation and at final concentrations of 0.5 mg/ml for the oral (PO) formulation. The intravenous formulation was dosed at 2 ml/kg to obtain a dose of 2 mg/kg. The oral formulations were dosed at 10 ml/kg to obtain final doses of 5 mg/kg.
Blood samples were taken at 7 and 20 min, 1, 2, 4, 8 and 24 h after intravenous dose administration. Blood and liver samples were taken at 30 min, 1, 2, 4, 8, 12 and 24 h after oral dose administration.
Approximately 0.020 mL blood will be collected into BD blood collection tubes containing K3-EDTA at each time point. Samples were placed immediately on melting ice and plasma was obtained following centrifugation at 4° C. for 5 minutes at approximately 4000×g. Plasma samples were adjusted to pH 3-4 by phosphoric acid and stored at −75±15° C. prior to analysis. The whole process was completed within 1 hour.
Liver samples were collected at adopted time point, and the vial containing the tissues sample was snap-frozen in liquid nitrogen right away and kept at −75±15° C. prior to analysis. All liver samples were weighed and homogenized with phosphoric acid solution (pH to 3-4) by liver weight (g) to phosphoric acid solution volume (mL) ratio 1:4 before analysis.
Plasma and liver samples were analyzed using LC-MS/MS methods. The lower limit of quantification (LLOQ) for plasma was 1.0 ng/ml and for liver was 2.5 ng/g. A non-compartmental analysis using the “Linear up log down” rule was used for all data. A limited pharmacokinetic analysis was performed using Phoenix™ Professional (Version 6.1).

The subject of another data set is HBV. As to the kind of experiment: Anti-viral assay in HepG2.2.15 cells: anti-HBV activity, HBV DNA in culture medium by qPCR. In kind it is cell-based. The note with it: HepG2.2.15 cells, 6 days treatment, HBV DNA by qPCR; read-out: EC50. The method, boiled down: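 Cells in 2% FBS medium treated 6 days, compound and medium refreshed at day 3; 8-point 1:3 dilutions in triplicate, top 10 or 1 uM (antiviral) and 100 uM (cytotoxicity). Extracellular viral DNA quantified by qPCR, giving EC50 and CC50.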

Where [3] appears, read: mice, read-out: AUCInf Ratio (Liver/Plasma).
Setting [4] is: mice, read-out: Cmax Ratio (Liver/Plasma).

Take `CCOC(=O)C1=C(CN2CCN3C(=S)N(CC(C)(C)C(=O)O)CC3C2)NC(c2nccs2)=N[C@H]1c1cccc(F)c1C` (single isomer, unassigned) [Compound 1A]: the “CYP induction effect, in words” value with CYP3A4 (CYP3A4, comparing with reference 2) is recorded as “no CYP induction effect”. Also, the midpoint of cytotoxicity in data set [1], the CC50 at 6 days, lay at 22.5 µM. Moreover, the Kp in data set [2] (setting [3]) is 17.5. For the same compound, the Kp in data set [2] (setting [4]) was 14. Besides, in data set [2] (mice plasma), the clearance came out at 16.6 mL/min/kg, the Cmax worked out at 2350 ng/mL, the “IV AUCinf/Dose” value is 1078.3 ng·kg·h/mg/mL and the “PO AUCinf/Dose” value was 784.8 ng·kg·h/mg/mL. In data set [2] (mice liver), the “Liver AUCinf/Dose” value was found to be 13733 ng·kg·h/g/mg and the “Liver Cmax/Dose” value stood at 6225 kg·ng/mg/mL. Besides, the “dose-normalized Cmax and dose-normalized AUCinf in liver, in words” value in data set [2] (mice liver, comparing with reference 1 and reference 2) is “far increased”. The “clearance, in words” value in data set [2] (mice plasma, comparing with reference 1 and reference 2) is recorded as “far slower clearance”. Moreover, the F in data set [2] (mice) stood at 72.9%. Also, the “bioavailability in plasma, in words” value in data set [2] (mice, comparing with reference 1 and reference 2) is listed as “increased bioavailability”. Also, the EC50 in the data set on HBV stood at 0.0063 µM.

Turning to `CCOC(=O)C1=C(CN2CCN3C(=O)N(CC(C)(C)C(=O)O)C[C@@H]3C2)NC(c2nccs2)=N[C@H]1c1cccc(F)c1C` [Reference 2, reference compound], the “mRNA Percentage of positive control at 10 uM” value in the data set with CYP3A4 (CYP3A4 mRNA, donor 1, 10 μM, positive control rifampicin) stood at 20.50%. In addition, the “mRNA Fold induction (Mean ± SD)” value with CYP3A4 (CYP3A4 mRNA, donor 1, 10 μM, vs vehicle) is reported as 5.05 ± 0.61. For the same compound, the Kp in data set [2] (setting [3]) was 15.9. For the same compound, the Kp in data set [2] (setting [4]) came to 12.2. In data set [2] (mice plasma), the clearance turned out to be 49.1 mL/min/kg, the Cmax was determined as 733 ng/mL, the “IV AUCinf/Dose” value worked out at 345.2 ng·kg·h/mg/mL and the “PO AUCinf/Dose” value worked out at 181.5 ng·kg·h/mg/mL. Also, in data set [2] (mice liver), the “Liver AUCinf/Dose” value came out at 2894 ng·kg·h/g/mg and the “Liver Cmax/Dose” value is 1676 kg·ng/mg/mL. The compound also registered a F in data set [2] (mice) of 52.7%.
